Data: US9999650B2, “Peptide and peptidomimetic inhibitors” (Ra Pharmaceuticals, Inc., priority 2012, dated 2018)
Numbered stars: 1 amine (or outer) side, 2 acyl side, 3 side chain; on linkers, the order of the positions; unused ones are H or OH. Bridge positions count the residues as written; N and C are the ends. Square brackets hold non-standard residues; d marks the D form. Ends that are not written are not given here. Peptide text beside a SMILES is read from it. X6 = Nc1ccc(CCC(N[*:1])C(=O)[*:2])cn1; mXylylene = c1cc(C[*:1])cc(C[*:2])c1; Gly(cPr) = N[C@H](C(=O)O)C1CC1; dPhg = N[C@@H](C(=O)O)c1ccccc1; Chg = N[C@H](C(=O)O)C1CCCCC1; Phg = N[C@H](C(=O)O)c1ccccc1; Tle = CC(C)(C)[C@H](N)C(=O)O; Dab = NCC[C@H](N)C(=O)O; Mpa = O=C(O)CCS

Target: T1, human plasma kallikrein (Homo sapiens, UniProt P03952)
T1 construct: purchased Enzyme Research Laboratories HPKa 1303
T1 sequence (P03952 20-390 limits assumed): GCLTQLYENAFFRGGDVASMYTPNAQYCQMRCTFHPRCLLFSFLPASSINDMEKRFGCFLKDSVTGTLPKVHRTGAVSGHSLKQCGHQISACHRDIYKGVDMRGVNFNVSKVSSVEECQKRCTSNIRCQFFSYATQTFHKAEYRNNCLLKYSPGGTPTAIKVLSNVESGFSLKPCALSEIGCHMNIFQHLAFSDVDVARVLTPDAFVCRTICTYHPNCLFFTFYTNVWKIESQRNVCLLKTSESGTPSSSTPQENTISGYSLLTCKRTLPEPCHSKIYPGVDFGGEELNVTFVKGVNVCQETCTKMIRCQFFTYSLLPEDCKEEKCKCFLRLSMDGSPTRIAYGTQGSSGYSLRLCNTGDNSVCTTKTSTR
T1 sequence (P03952 391-638 limits assumed): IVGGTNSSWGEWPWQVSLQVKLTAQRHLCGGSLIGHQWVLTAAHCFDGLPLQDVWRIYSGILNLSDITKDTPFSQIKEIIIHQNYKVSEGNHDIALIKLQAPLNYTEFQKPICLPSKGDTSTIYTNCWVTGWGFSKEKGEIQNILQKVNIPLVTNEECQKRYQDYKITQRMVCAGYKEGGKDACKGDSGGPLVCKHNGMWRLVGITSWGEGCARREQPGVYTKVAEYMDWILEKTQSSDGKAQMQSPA
Experiment: Enzyme inhibition assay (fluorogenic substrate H-Pro-Phe-Arg-AMC)
Format: biochemical
Details: Kallikrein inhibitory activity; 1 nM activated human kallikrein, 500 μM H-Pro-Phe-Arg-AMC, 1 hour room temperature; read-out: Avg. IC50
Description: Activated human plasma kallikrein (Enzyme Research Laboratories, HPKa 1303) was reacted with H-Pro-Phe-Arg-7-amido-4-methylcoumarin (H-Pro-Pre-Arg-AMC) (a fluorogenic substrate for plasma as well as pancreatic and urinary kallikreins; Bachem I-1295) and candidate inhibitory peptides to determine the IC50 of the inhibitor.
Ten 8-fold serial dilutions of peptides (10 mM DMSO stocks) were performed in DMSO and then added to TCNB (50 mM Tris-HCl pH 7.2, 150 mM NaCl, 10 mM CaCl2, 0.05% Brij-35) and sonicated. 50 μL of the peptide dilutions were added to microtitre plates (96 well, black non-binding surface, Corning, 3650) and incubated for 5 minutes at room temperature with 4 nM activated human kallikrein (final concentration after addition of fluorogenic substrate: 1 nM). The samples were then incubated for 1 hour at room temperature with 2 mM H-Pro-Phe-Arg-AMC (final concentration 500 μM). Relative Fluorescence Units (RFU) were measured at excitation/emission 360 nm/460 nm by a SpectraMax M3.

| Compound | IC50 [nM] |
| --- | --- |
| CC(C)[C@H](NC(=O)C(CCc1ccc(N)nc1)NC(=O)[C@@H]1CSCc2cccc(c2)CSCCC(=O)N2CCC[C@H]2C(=O)N[C@@H](C2CCCCC2)C(=O)N1)C(N)=O (stereo partly drawn) [Compound R2203, [mXylyl(1,4)](des-NH2)C-P-Chg-C-2-amino-4-(6-aminopyridin-3-yl)butanoic acid-V-NH2] ([Mpa]P[Chg]C[X6]V-NH2; linker 1-4 via mXylylene) | > 10000 |
| CC(=O)N[C@@H](CS)C(=O)N[C@@H](CC(N)=O)C(=O)N[C@@H](Cc1ccc(O)cc1)C(=O)N[C@@H](Cc1c[nH]c2ccccc12)C(=O)N[C@H](CO)C(=O)N1CCC[C@H]1C(=O)N[C@@H](Cc1c[nH]c2ccccc12)C(=O)N[C@H](C(=O)N[C@@H](C)C(=O)N[C@@H](CS)C(N)=O)[C@@H](C)O [Compound R2230, Ac-CNYWsPWTAC-NH2] (Ac-CNYW[dS]PWTAC-NH2) | > 6580 |
| CC(C)(C)[C@H](NC(=O)[C@H](CCN)NC(=O)[C@@H]1CSCc2cccc(c2)CSCCC(=O)N2CCC[C@H]2C(=O)N[C@H](c2ccccc2)C(=O)N1)C(N)=O [Compound R2212, [mXylyl(1,4)](des-NH2)C-P-(D-Phg)-C-Dab-Tbg-NH2] ([Mpa]P[dPhg]C[Dab][Tle]-NH2; linker 1-4 via mXylylene) | > 100000 |
| CC[C@@H](C)[C@@H]1NC(=O)[C@@H]2CCCN2C(=O)CCCCCCC/C=C/C[C@@H](C(=O)N[C@@H](CCCNC(=N)N)C(=O)N[C@H](C(N)=O)C(C)C)NC1=O [Compound R2244] | > 50000 |
| CC[C@@H](C)[C@@H]1NC(=O)[C@@H]2CCCN2C(=O)CCCCC/C=C/C[C@@H](C(=O)N[C@@H](CCCNC(=N)N)C(=O)N[C@H](C(N)=O)C(C)C)NC1=O [Compound R2246] | > 50000 |
| CC(C)(C)[C@H](NC(=O)[C@H](CCCNC(=N)N)NC(=O)[C@@H]1COc2cccc(c2)OCCCC(=O)N2CCC[C@H]2C(=O)N[C@@H](C2CCCCC2)C(=O)N1)C(N)=O [Compound R2255] | > 25000 |
| MCNYWSP-NH2 [Compound R2115, MCNYWSP-NH2] | > 17300 |

Second part, the compound after the results:

| IC50 [nM] | Compound |
| --- | --- |
| > 4700 | CC(C)(C)[C@H](NC(=O)[C@H](CCCNC(=N)N)NC(=O)[C@@H]1CSCc2cccc(c2)CSCCC(=O)N2CCC[C@H]2C(=O)N[C@H](c2ccccc2)C(=O)N1)C(N)=O [Compound R2187, [mXylyl(1,4)](des-NH2)C-P-(D)Phg-CR-Tbg-NH2] ([Mpa]P[dPhg]CR[Tle]-NH2; linker 1-4 via mXylylene) |
| 118 | CC(=O)N[C@H]1CSCc2cccc(c2)CSC[C@@H](C(=O)N[C@@H](CCCNC(=N)N)C(=O)N[C@H](C(N)=O)C2CC2)NC(=O)[C@H](c2ccccc2)NC(=O)[C@H](CO)NC(=O)[C@@H](C)NC1=O [Compound R2070, [mXylyl(1,5)]Ac-C-a-S-Phg-CR-Cppg-NH2] (Ac-C[dA]S[Phg]CR[Gly(cPr)]-NH2; linker 1-5 via mXylylene) |
| 3.5 | CSCC[C@H](N)C(=O)N[C@@H](CS)C(=O)N[C@@H](CC(N)=O)C(=O)N[C@@H](Cc1ccc(O)cc1)C(=O)N[C@@H](Cc1c[nH]c2ccccc12)C(=O)N[C@@H](CO)C(=O)N1CCC[C@H]1C(=O)N[C@@H](Cc1c[nH]c2ccccc12)C(=O)N[C@H](C(=O)N[C@@H](CCC(=O)O)C(=O)N[C@@H](CS)C(=O)N[C@@H](CO)C(N)=O)[C@@H](C)O [Compound R2110, MCNYWSPWTECS-NH2] (H-MCNYWSPWTECS-NH2; N-terminus assumed) |
| 58.8 | CC(C)C[C@H](NC(=O)[C@@H](NC(=O)[C@H](CCCNC(=N)N)NC(=O)[C@@H]1CSCc2cccc(c2)CSCCC(=O)N2CCC[C@H]2C(=O)N[C@@H](c2ccccc2)C(=O)N1)C(C)(C)C)C(=O)O [Compound R2202, [mXylyl(1,4)](des-NH2)C-P-Phg-CR-Tbg-L-OH] ([Mpa]P[Phg]CR[Tle]L-OH; linker 1-4 via mXylylene) |
| 498 | CC(C)(C)[C@H](NC(=O)[C@H](CCCNC(=N)N)NC(=O)[C@@H]1CSCc2cccc(c2)CC(=O)NCCC(=O)N2CCC[C@H]2C(=O)N[C@@H](C2CCCCC2)C(=O)N1)C(N)=O [Compound R2258] |
